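Test compounds were applied to cells in 96-well plates for 48 hours at 5 doses. GI50: concentration for 50% inhibition of growth. TGI denotes the concentration required for complete inhibition of growth.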
Columns and labels:
Assay in all cases: NCI tumour cell line growth inhibition, 48 h
ACHN renal = test system: ACHN renal
IGROV1 ovarian = test system: IGROV1 ovarian
BT-549 breast = test system: BT-549 breast
OVCAR-5 ovarian = test system: OVCAR-5 ovarian
SW-620 colon = test system: SW-620 colon
COLO 205 colon = test system: COLO 205 colon
PC-3 prostate = test system: PC-3 prostate
NCI/ADR-RES ovarian = test system: NCI/ADR-RES ovarian
A498 renal = test system: A498 renal
HCC-2998 colon = test system: HCC-2998 colon

Row | SMILES | GI50 (ACHN renal) | GI50 (IGROV1 ovarian) | TGI (IGROV1 ovarian) | GI50 (BT-549 breast) | TGI (BT-549 breast) | GI50 (OVCAR-5 ovarian) | TGI (OVCAR-5 ovarian) | GI50 (SW-620 colon) | TGI (SW-620 colon) | GI50 (COLO 205 colon) | TGI (COLO 205 colon) | GI50 (PC-3 prostate) | TGI (PC-3 prostate) | GI50 (NCI/ADR-RES ovarian) | TGI (NCI/ADR-RES ovarian) | GI50 (A498 renal) | TGI (A498 renal) | TGI (ACHN renal) | TGI (HCC-2998 colon) | GI50 (HCC-2998 colon)
1 | COc1cc2c3c(n(CCN)c(=O)c2cc1OC)-c1cc2c(cc1C3=O)OCO2 | 0.275 µM | 1.53 µM | 4.74 µM | 0.959 µM | 3.01 µM | 1.95 µM | 3.74 µM | 0.0383 µM | 2.29 µM | 0.8 µM | 4.4 µM | 0.671 µM | 2.89 µM | 0.152 µM | 0.808 µM | 3.48 µM | 18.9 µM |  |  | 
2 | C=C(CN(CC(=C)C(=O)c1ccccc1)C(C)(C)C)C(=O)c1ccccc1 |  |  | 40.3 µM |  |  |  | 34.3 µM |  | 9.91 µM |  | 7.52 µM |  |  |  |  |  | 32.9 µM | 21.3 µM | 33.3 µM | 
3 | C=C1C(=O)O[C@H]2[C@H]1CC/C(COC(=O)C(=O)c1c[nH]c3ccc(OC)cc13)=C\CC[C@@]1(C)O[C@@H]21 | 4.21 µM | 3.22 µM | 7.64 µM | 1.82 µM | 3.53 µM | 7.11 µM | 14.1 µM | 4 µM | 16.2 µM |  | > 20.6 µM | 6.08 µM | 11.1 µM | 9.53 µM | 29.6 µM |  |  | 9.2 µM | 9.82 µM | 6.29 µM
4 | COc1cc2c3c(n(CCCN4CCN(C)CC4)c(=O)c2cc1OC)-c1cc2c(cc1C3=O)OCO2 | 10.1 µM | 7.05 µM | 80.6 µM | 80.8 µM | > 100 µM | 17.6 µM | 31.4 µM | 11.2 µM | 54.1 µM | 10.3 µM | 40.3 µM | 15.8 µM | 36.4 µM | 1.55 µM | 12.9 µM |  |  | 22.4 µM |  | 
5 | O=C1/C(=C/c2ccccc2)SC(=Nc2ccccc2)N1Nc1ccccc1 | 23 µM | 12.7 µM | > 100 µM | 6.51 µM | 35.7 µM | 34.1 µM | > 100 µM | 17.6 µM | > 100 µM | 20.3 µM | > 100 µM | 4.49 µM | > 100 µM | 18.1 µM | > 100 µM |  |  | > 100 µM | > 100 µM | 20 µM
6 | COc1ccc(NC(=O)C(=O)NNC(=O)c2sc(NNC(C)=O)nc2C)c([N+](=O)[O-])c1 |  |  |  |  |  |  | > 100 µM |  | > 100 µM |  | > 100 µM |  |  |  |  |  | > 100 µM | > 100 µM | > 100 µM | 
7 | O=C(O)c1cc2ccccc2c(N=Nc2c([N+](=O)[O-])cc([N+](=O)[O-])cc2S(=O)(=O)O)c1O |  |  | > 100 µM |  | > 100 µM |  | > 100 µM |  | > 100 µM |  | > 100 µM |  | > 100 µM |  | > 100 µM |  |  | > 100 µM |  | 
8 | COC(=O)C1=C(C(=O)OC)C23C=CC=CC24C(C(=O)OC)=C(C(=O)OC)C4C1C3 (stereo not drawn) |  |  | > 100 µM |  |  |  | > 100 µM |  | > 100 µM |  | > 100 µM |  |  |  |  |  |  | > 100 µM | > 100 µM | 
9 | COC(=O)c1ccccc1NC(=O)C(=O)CC(=O)c1ccccc1NC1=CC(=O)C(=O)c2ccccc21 |  |  | > 59.6 µM |  | 39.4 µM |  | 57.7 µM |  | 23 µM |  | 53.1 µM |  | 42.3 µM |  |  |  | > 56.2 µM | 59.5 µM | 66.7 µM | 
10 | CCCCn1c2c(c3ccccc3c1=O)C(=O)c1ccccc1-2 |  |  | > 100 µM |  | > 100 µM |  | > 100 µM |  | > 100 µM |  | > 100 µM |  | > 100 µM |  | > 100 µM |  | > 100 µM |  |  | 
11 | Cc1ccc(S(=O)(=O)N2CCC3(C(/C=C/c4ccccc4)=Nc4ccccc43)C2c2ccccc2)cc1 (stereo not drawn) |  |  | 24.6 µM |  |  |  | > 100 µM |  | > 100 µM |  | > 100 µM |  |  |  |  |  | > 100 µM | > 100 µM | > 100 µM | 
12 | N#C/C(=C/c1cccnc1)C(=O)c1ccccc1 |  |  |  |  |  |  | > 100 µM |  | > 100 µM |  | > 100 µM |  |  |  |  |  |  | > 100 µM | > 100 µM | 
13 | CCCCCCCCCCCCCC/C(C(=O)OC)=C(/O)C(=O)OCC |  |  | > 100 µM |  |  |  | 70.1 µM |  | > 100 µM |  | > 100 µM |  |  |  |  |  | > 100 µM | > 100 µM | 37.3 µM | 
14 | CCOP(=O)(CC(=O)C1=C(O)C(CCCNC(=O)OC(C)(C)C)N(Cc2ccc(OC)c(OC)c2)C1=O)OCC (stereo not drawn) |  |  | > 100 µM |  |  |  | > 100 µM |  | > 100 µM |  | > 100 µM |  |  |  |  |  | > 100 µM | > 100 µM | > 100 µM | 
15 | CC1=C(C(=O)Nc2ccccc2C)C(c2ccc([N+](=O)[O-])cc2)C(C(=O)Nc2ccccc2C)=C(C)N1 |  |  | > 100 µM |  |  |  | > 100 µM |  | > 100 µM |  | > 100 µM |  |  |  |  |  | 80.5 µM | > 100 µM | > 100 µM | 
16 | CC12O[C@H](c3ccccc3)[C@H](c3ccccc3)N1C(=O)C1(C(=O)OCc3ccccc3)CC12 (stereo partly drawn) |  |  | > 100 µM |  |  |  | > 100 µM |  | > 100 µM |  | > 100 µM |  |  |  |  |  | > 100 µM | > 100 µM | > 100 µM | 
17 | Cc1c(O)c(=O)ccn1C1OC(CO)C(O)C1O (stereo not drawn) |  |  |  |  |  |  | > 100 µM |  | > 100 µM |  | > 100 µM |  |  |  |  |  | > 100 µM | > 100 µM |  | 
18 | NCCNCC(O)CO (stereo not drawn) |  |  | > 100 µM |  | > 100 µM |  | > 100 µM |  | > 100 µM |  | > 100 µM |  | > 100 µM |  | > 100 µM |  | > 100 µM | > 100 µM |  | 
19 | O=c1cccc(C#Cc2ccccc2)o1 | 7.7 µM | 9.58 µM | > 87.3 µM | 2.57 µM | 12.2 µM | 6.35 µM | 16.1 µM | 4.85 µM | 43.3 µM | 12.6 µM | > 44.9 µM | 3.41 µM | > 40.4 µM | 7.11 µM | > 26.6 µM | 2.38 µM | 7.02 µM | 21.5 µM |  | 
20 | COc1ccc2nc(NCCCNCCO)c3sc4ccc(F)cc4c(=O)c3c2c1 | 1.63 µM | 1.25 µM | 2.63 µM | 12.8 µM | 31.7 µM | 1.5 µM | 2.87 µM | 1.53 µM | 3.04 µM | 1.8 µM | 3.77 µM | 1.56 µM | 3.04 µM |  |  | 1.53 µM | 2.98 µM | 2.99 µM | 3.61 µM | 1.76 µM
21 | N/N=C1\c2ccccc2C2/C(=N\N)c3ccccc3C12 (stereo not drawn) |  |  | > 100 µM |  |  |  | > 100 µM |  | > 100 µM |  | > 100 µM |  |  |  |  |  |  | > 100 µM | > 100 µM | 
